Assay results taken from ChEMBL document CHEMBL1158935, “New Polyhydroxy Sterols, Dysidamides, and a Dideoxyhexose from the Sponge Dysidea herbacea” (J Nat Prod, 1991).
In brackets after ≈: the same amount, converted by molar mass.

Tested on: P388
Test: Cytotoxicity against mouse P388 cells
Format: functional, cell-based

In order of rising IC50:
1. C=C(CC[C@@H](C)[C@H]1CC[C@H]2C3=C[C@@H](OC(C)=O)[C@@]4(O)C[C@@H](OC(C)=O)CC[C@]4(C)[C@H]3CC[C@]12C)C(C)C  1.46 µg/mL (≈ 2.84 µM)
2. C=C(CC[C@@H](C)[C@H]1CC[C@H]2C3=C[C@H](OC(C)=O)[C@@]4(O)C[C@@H](OC(C)=O)CC[C@]4(C)[C@@]3(O)[C@H](OC(C)=O)C[C@]12C)C(C)C  4.78 µg/mL (≈ 8.12 µM)
3. C=C(CC[C@@H](C)[C@H]1CC[C@H]2C3=C[C@@H](OC(C)=O)[C@@]4(O)C[C@@H](OC(C)=O)CC[C@]4(C)[C@@]3(O)[C@H](OC(C)=O)C[C@]12C)C(C)C  6.5 µg/mL (≈ 11 µM)
